Assay results published in patent US6939864B1, “Animal feed compositions and methods of using the same” (Purdue Research Foundation, priority 2001, dated 2005).

Legend:
[1] = tested on: serum cortisol (CS), ACTH and tumor necrosis factor-alpha (TNF); test: Porcine study: serum ACTH, cortisol and TNF, basal and after I.V. LPS challenge; format: in vivo, pigs; details: I.V. LPS 150 ug/kg, day 14 postweaning
Source text: The objective of this study was to evaluate the potential benefit of supplementing the neonatal pig with Vitamin C (VC) and/or Beta-glucan (BG). Thirty-two crossbred pigs were selected at birth and assigned to one of four dietary treatment groups (n=8/group). Beginning on the day of birth, pigs received their respective treatments via an oral gavage on a daily basis until weaning at 2 weeks of age. Dietary treatment groups included Control (Con; no VC or BG), VC (75 ppm), BG (0.312 g/kg body weight) and VC+BG (75 ppm and 0.312 g/kg body weight). After weaning, pigs were placed on a starter ration containing their respective dietary treatments and a Phase 1 diet specific for the University of Missouri Swine unit for a 2 week period. Body weights were recorded every 3 days to adjust dietary treatment doses. On day 14 postweaning, blood samples were collected at 30-min intervals for one hour followed by an I.V. injection of lipopolysaccharide (LPS; 150 ug/kg). LPS is part of bacterial cell walls that initiates the immune response. Blood samples were collected at 30-min intervals for an additional 3-hour period following the LPS challenge. Blood samples were analyzed for serum cortisol (CS), ACTH and tumor necrosis factor-alpha (TNF) which are indicators of acute stress response to challenge (LPS).

[2] = Calf study: body weight change and fecal scores; format: in vivo, calves; details: mean ±SE
Method: Three days after they were born, calves were started on all milk, milk replacer. The calves were assigned randomly to one of four treatment groups control, β-glucan, Vitamin C, and β-glucan and Vitamin C. Each treatment is represented in a block (1 block has 4 calves and each room has 3 blocks). Initial weight and temperature were taken when calves were placed on study, then weekly for six more weeks.
Fecal scores, nasal and ocular discharges were recorded daily along with room temperature and humidity. Blood samples were taken every week for seven weeks; 10 ml heparinized tube for plasma to measure cortisol and ascorbic acid; 5 ml sodium citrate tube for hematocrits, granulocytes, lymphocytes and fibrinogen.
Calves were fed milk replacer equaling 10% of their body weight per day, which was given in two equal rations (morning and afternoon). Dry milk replacer was equal to 12.5% of amount fed. Calves on treatment […] were given β-glucan equaling 0.3125% of total intake. Calves on treatment 3 and 4 received 250 mg of Vitamin C twice a day.

## O=C1O[C@H]([C@@H](O)CO)C(O)=C1O [VC, ascorbic acid]
[1]
  TNF response to the LPS challenge: more rapid decline in serum TNF
[1]; compared to Con group
  CS response to the LPS challenge: lower

## ascorbyl-2-polyphosphonate [AA]
[2]; dairy calves on milk replacer
  Mean BW change: 1.48±0.12 kg/wk
[2]; scale of 1–4, 1=solid and 4=fluid
  mean fecal scores: 1.48±0.03
